Experimental data published in ChEMBL document CHEMBL1124001, “Synthesis and antileukemic activity of bis[[(carbamoyl)oxy]methyl]- substituted pyrrolo[2,1-a]isoquinolines, pyrrolo[1,2-a]quinolines, pyrrolo[2,1-a]isobenzazepines, and pyrrolo[1,2-a]benzazepines” (J Med Chem, 1988).

Tests used:
Mus musculus [1] = test: Net log cell kill was determined after injecting 12.5 mg/kg intraperitoneally in CD2F1 mice; assay type: functional; details: route intraperitoneal
Mus musculus [2] = test: Net log cell kill was determined after injecting 25 mg/kg intraperitoneally in CD2F1 mice; assay type: functional; details: route intraperitoneal
Mus musculus [3] = test: Net log cell kill was determined after injecting 3.16 mg/kg intraperitoneally in CD2F1 mice; assay type: functional; details: route intraperitoneal
Mus musculus [4] = test: Body weight change of test animals to that of control was determined after injection at 6.25 mg/kg intraperitoneally in CD2F1 mice; assay type: functional; details: route intraperitoneal
Mus musculus [5] = test: Net log cell kill was determined after injecting 6.25 mg/kg intraperitoneally in CD2F1 mice; assay type: functional; details: route intraperitoneal
Mus musculus [6] = test: Body weight change of test animals to that of control was determined after injection at 100 mg/kg intraperitoneally in CD2F1 mice; assay type: functional; details: route intraperitoneal
Mus musculus [7] = test: Body weight change of test animals to that of control was determined after injection at 25 mg/kg intraperitoneally in CD2F1 mice; assay type: functional; details: route intraperitoneal
Mus musculus [8] = test: Body weight change of test animals to that of control was determined after injection at 3.16 mg/kg intraperitoneally in CD2F1 mice; assay type: functional; details: route intraperitoneal
Mus musculus [9] = test: Body weight change of test animals to that of control was determined after injection at 50 mg/kg intraperitoneally in CD2F1 mice; assay type: functional; details: route intraperitoneal
Mus musculus [10] = test: Toxicity day survivors was determined by the ratio of animals survived to that of test animals at 100 mg/kg intraperitoneally in CD2F1 mice; 3/6; assay type: organism-based; design: dose 100 mg/kg, route intraperitoneal; details: in vivo, ip
Mus musculus [11] = test: Toxicity day survivors was determined by the ratio of animals survived to that of test animals at 12.5 mg/kg intraperitoneally in CD2F1 mice; 6/6; assay type: organism-based; design: dose 12.5 mg/kg, route intraperitoneal; details: in vivo, ip
Mus musculus [12] = test: Toxicity day survivors was determined by the ratio of animals survived to that of test animals at 25 mg/kg intraperitoneally in CD2F1 mice; 6/6; assay type: organism-based; design: dose 25 mg/kg, route intraperitoneal; details: in vivo, ip
Mus musculus [13] = test: Toxicity day survivors was determined by the ratio of animals survived to that of test animals at 3.16 mg/kg intraperitoneally in CD2F1 mice; 6/6; assay type: organism-based; design: dose 3.16 mg/kg, route intraperitoneal; details: in vivo, ip
Mus musculus [14] = test: Toxicity day survivors was determined by the ratio of animals survived to that of test animals at 50 mg/kg intraperitoneally in CD2F1 mice; 6/6; assay type: organism-based; design: dose 50 mg/kg, route intraperitoneal; details: in vivo, ip
Mus musculus [15] = test: Toxicity day survivors was determined by the ratio of animals survived to that of test animals at 6.25 mg/kg intraperitoneally in CD2F1 mice; 6/6; assay type: organism-based; design: dose 6.25 mg/kg, route intraperitoneal; details: in vivo, ip
Mus musculus [16] = test: Ratio of treated to that of untreated tumor-bearing control animals at 6.25 mg/kg intraperitoneally in CD2F1 mice was determined; assay type: functional; details: route intraperitoneal
Mus musculus [17] = test: Ratio of treated to that of untreated tumor-bearing control animals at 12.5 mg/kg intraperitoneally in CD2F1 mice was determined; assay type: functional; details: route intraperitoneal
Mus musculus [18] = test: Ratio of treated to that of untreated tumor-bearing control animals at 25 mg/kg intraperitoneally in CD2F1 mice was determined; assay type: functional; details: route intraperitoneal
Mus musculus [19] = test: Ratio of treated to that of untreated tumor-bearing control animals at 3.16 mg/kg intraperitoneally in CD2F1 mice was determined; assay type: functional; details: route intraperitoneal
Mus musculus [20] = test: Body weight change of test animals to that of control was determined after injection at 12.5 mg/kg intraperitoneally in CD2F1 mice; assay type: functional; details: route intraperitoneal
Mus musculus [21] = test: Net log cell kill was determined after injecting 10 mg/kg intraperitoneally in CD2F1 mice; assay type: functional; details: route intraperitoneal
Mus musculus [22] = test: Net log cell kill was determined after injecting 2.5 mg/kg intraperitoneally in CD2F1 mice; assay type: functional; details: route intraperitoneal
Mus musculus [23] = test: Net log cell kill was determined after injecting 5 mg/kg intraperitoneally in CD2F1 mice; assay type: functional; details: route intraperitoneal
Mus musculus [24] = test: Body weight change of test animals to that of control was determined after injection at 10 mg/kg intraperitoneally in CD2F1 mice; assay type: functional; details: route intraperitoneal
Mus musculus [25] = test: (§1) Body weight change of test animals to that of control was determined after injection at 2.5 mg/kg intraperitoneally in CD2F1 mice; assay type: functional; details: route intraperitoneal
Mus musculus [26] = test: Body weight change of test animals to that of control was determined after injection at 20 mg/kg intraperitoneally in CD2F1 mice; assay type: functional; details: route intraperitoneal
Mus musculus [27] = test: Body weight change of test animals to that of control was determined after injection at 5 mg/kg intraperitoneally in CD2F1 mice; assay type: functional; details: route intraperitoneal
Mus musculus [28] = test: Toxicity day survivors was determined by the ratio of animals survived to that of test animals at 10 mg/kg intraperitoneally in CD2F1 mice; 6/6; assay type: organism-based; design: dose 10 mg/kg, route intraperitoneal; details: in vivo, ip
Mus musculus [29] = test: Toxicity day survivors was determined by the ratio of animals survived to that of test animals at 2.5 mg/kg intraperitoneally in CD2F1 mice; 6/6; assay type: organism-based; design: dose 2.5 mg/kg, route intraperitoneal; details: in vivo, ip
Mus musculus [30] = test: Toxicity day survivors was determined by the ratio of animals survived to that of test animals at 20 mg/kg intraperitoneally in CD2F1 mice; 6/6; assay type: organism-based; design: dose 20 mg/kg, route intraperitoneal; details: in vivo, ip
Mus musculus [31] = test: Toxicity day survivors was determined by the ratio of animals survived to that of test animals at 40 mg/kg intraperitoneally in CD2F1 mice; 0/6; assay type: organism-based; design: dose 40 mg/kg, route intraperitoneal; details: in vivo, ip
Mus musculus [32] = test: Toxicity day survivors was determined by the ratio of animals survived to that of test animals at 5 mg/kg intraperitoneally in CD2F1 mice; 6/6; assay type: organism-based; design: dose 5 mg/kg, route intraperitoneal; details: in vivo, ip
Mus musculus [33] = test: Ratio of treated to that of untreated tumor-bearing control animals at 5 mg/kg intraperitoneally in CD2F1 mice was determined; assay type: functional; details: route intraperitoneal
Mus musculus [34] = test: Ratio of treated to that of untreated tumor-bearing control animals at 10 mg/kg intraperitoneally in CD2F1 mice was determined; assay type: functional; details: route intraperitoneal
Mus musculus [35] = test: Ratio of treated to that of untreated tumor-bearing control animals at 2.5 mg/kg intraperitoneally in CD2F1 mice was determined; assay type: functional; details: route intraperitoneal
Mus musculus [36] = test: as §1; assay type: ADME, organism-based; design: dose 2.5 mg/kg, route intraperitoneal; details: in vivo, ip

COc1ccc2c(c1)CCn1c(C)c(COC(=O)NC(C)C)c(COC(=O)NC(C)C)c1-2
KE (Mus musculus [1]): -1.29
KE (Mus musculus [2]): -1.29
KE (Mus musculus [3]): -1.43
T-C (Mus musculus [4]): -2.1 g
KE (Mus musculus [5]): -1.51
T-C (Mus musculus [6]): -5.3 g
T-C (Mus musculus [7]): -5.6 g
T-C (Mus musculus [8]): -1.1 g
T-C (Mus musculus [9]): -6.6 g
TDS (Mus musculus [10]): 3
TDS (Mus musculus [11]): 6
TDS (Mus musculus [12]): 6
TDS (Mus musculus [13]): 6
TDS (Mus musculus [14]): 6
TDS (Mus musculus [15]): 6
T/C (Mus musculus [16]): 136%
T/C (Mus musculus [17]): 153%
T/C (Mus musculus [18]): 153%
T/C (Mus musculus [19]): 142%
T-C (Mus musculus [20]): -3 g

CNC(=O)OCc1c(COC(=O)NC)c2n(c1C)-c1ccccc1CCC2
KE (Mus musculus [21]): 1
KE (Mus musculus [22]): 1.19
KE (Mus musculus [23]): 0.55
T-C (Mus musculus [24]): -2.2 g
T-C (Mus musculus [25]): -1.7 g
T-C (Mus musculus [26]): -2.6 g
T-C (Mus musculus [27]): -0.9 g
TDS (Mus musculus [28]): 6
TDS (Mus musculus [29]): 6
TDS (Mus musculus [30]): 6
TDS (Mus musculus [31]): 0
TDS (Mus musculus [32]): 6
T/C (Mus musculus [33]): 147%
T/C (Mus musculus [34]): 152%
T/C (Mus musculus [35]): 154%
TDS (Mus musculus [36]): 6
